Measured values as given in US20250074891A1 (Anaxis Pharma Pty Ltd., priority 2021, published 2025).

Key:
Conditions in all cases: Table 35
[1] = biological target: MLKL (full length) (Homo sapiens (Human), UniProt Q8NB16); test: KINOMEscan binding assay, MLKL (full length)
Protocol: (§1) Kinase assays. For most assays, kinase-tagged T7 phage strains were grown in parallel in 24-well blocks in an E. coli host derived from the BL21 strain. E. coli were grown to log-phase and infected with T7 phage from a frozen stock (multiplicity of infection=0.4) and incubated with shaking at 32° C. until lysis (90-150 minutes).
(§2) The Hill Slope was set to −1.

[2] = biological target: RIP1 (Homo sapiens (Human), UniProt Q13546); test: KINOMEscan binding assay, RIP1
Sequence of RIP1 (Q13546 whole entry): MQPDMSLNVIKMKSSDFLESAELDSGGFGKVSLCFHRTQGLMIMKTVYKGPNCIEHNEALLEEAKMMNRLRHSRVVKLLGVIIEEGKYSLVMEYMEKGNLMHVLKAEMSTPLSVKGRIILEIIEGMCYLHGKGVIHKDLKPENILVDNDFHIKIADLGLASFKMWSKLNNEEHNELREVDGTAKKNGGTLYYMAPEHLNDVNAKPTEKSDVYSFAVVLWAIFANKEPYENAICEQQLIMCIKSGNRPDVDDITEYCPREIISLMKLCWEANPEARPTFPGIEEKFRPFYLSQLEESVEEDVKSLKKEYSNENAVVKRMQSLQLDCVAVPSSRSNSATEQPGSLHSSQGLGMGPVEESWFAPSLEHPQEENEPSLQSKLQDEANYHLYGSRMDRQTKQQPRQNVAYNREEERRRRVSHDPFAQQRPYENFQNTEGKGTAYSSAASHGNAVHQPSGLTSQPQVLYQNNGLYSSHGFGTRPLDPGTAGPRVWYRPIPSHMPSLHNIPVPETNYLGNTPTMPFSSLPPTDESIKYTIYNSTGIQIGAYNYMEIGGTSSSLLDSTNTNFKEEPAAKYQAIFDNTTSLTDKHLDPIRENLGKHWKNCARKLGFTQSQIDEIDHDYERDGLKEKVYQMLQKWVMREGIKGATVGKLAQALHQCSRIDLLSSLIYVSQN

[3] = biological target: RIP3 (Homo sapiens (Human), UniProt Q9Y572); test: KINOMEscan binding assay, RIP3
Sequence of RIP3 (Q9Y572 whole entry): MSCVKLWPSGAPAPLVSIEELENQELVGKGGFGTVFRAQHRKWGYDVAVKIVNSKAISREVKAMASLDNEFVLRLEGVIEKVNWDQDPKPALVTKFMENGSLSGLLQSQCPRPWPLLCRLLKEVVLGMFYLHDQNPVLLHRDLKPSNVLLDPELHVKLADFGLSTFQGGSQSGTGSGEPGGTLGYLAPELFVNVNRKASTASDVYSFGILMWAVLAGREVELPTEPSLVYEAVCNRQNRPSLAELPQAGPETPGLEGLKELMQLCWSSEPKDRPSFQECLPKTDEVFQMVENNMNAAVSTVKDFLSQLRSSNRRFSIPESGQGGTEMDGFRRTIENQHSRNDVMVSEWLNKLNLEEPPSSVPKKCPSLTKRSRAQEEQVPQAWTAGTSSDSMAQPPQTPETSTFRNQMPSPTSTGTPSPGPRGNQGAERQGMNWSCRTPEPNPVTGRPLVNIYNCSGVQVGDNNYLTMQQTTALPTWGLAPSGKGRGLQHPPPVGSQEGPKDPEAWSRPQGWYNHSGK
Protocol: as §1, §2

Sequence of MLKL (full length) (Q8NB16 whole entry): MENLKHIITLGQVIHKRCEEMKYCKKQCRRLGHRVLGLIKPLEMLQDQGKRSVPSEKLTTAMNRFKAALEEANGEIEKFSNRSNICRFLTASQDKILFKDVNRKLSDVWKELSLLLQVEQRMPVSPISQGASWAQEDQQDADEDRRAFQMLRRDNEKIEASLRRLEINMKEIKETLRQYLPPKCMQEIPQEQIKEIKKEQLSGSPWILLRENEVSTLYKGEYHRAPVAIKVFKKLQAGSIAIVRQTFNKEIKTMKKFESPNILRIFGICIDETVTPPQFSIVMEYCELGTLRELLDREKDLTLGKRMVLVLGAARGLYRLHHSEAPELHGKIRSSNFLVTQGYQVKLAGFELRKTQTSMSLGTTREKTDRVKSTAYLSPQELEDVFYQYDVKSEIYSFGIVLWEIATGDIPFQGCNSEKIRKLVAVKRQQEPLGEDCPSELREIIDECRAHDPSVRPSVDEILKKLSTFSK

Kd [1] [nM] | Kd [2] [µM] | Kd [3] [µM] | SMILES
< 10 | > 30 | > 30 | C[C@H](Oc1cc(-c2n[nH]c(Nc3cnccn3)c2C(N)=O)ccc1NS(=O)(=O)CC(F)(F)F)c1ccc(Cl)cc1 [Compound 259, 3-{3-[(1S)-1-(4-chlorophenyl)ethoxy]-4-(2,2,2-trifluoroethane-sulfonamido)phenyl}-5-[(pyrazin-2-yl)amino]-1H-pyrazole-4-carboxamide]
< 10 | > 30 | > 30 | CCS(=O)(=O)Nc1ccc(-c2n[nH]c(Nc3ccc(C#N)cc3)c2C(N)=O)cc1 [Compound 102, 5-((4-cyanophenyl)amino)-3-(4-(ethylsulfonamido)phenyl)-1H-pyrazole-4-carboxamide]
< 10 | > 30 | > 30 | C[C@H](Oc1cc(-c2n[nH]c(Nc3cccc(C(F)(F)F)n3)c2C(N)=O)ccc1NS(=O)(=O)C(F)F)c1ccc(F)cc1 [Compound 229, 3-[4-(difluoromethanesulfonamido)-3-[(1S)-1-(4-fluorophenyl)ethoxy]phenyl]-5-{[6-(trifluoromethyl)pyridin-2-yl]amino}-1H-pyrazole-4-carboxamide]
< 10 | > 30 | > 30 | C[C@H](Oc1cc(-c2n[nH]c(Nc3cc(C(C)(C)F)on3)c2C(N)=O)ccc1NS(=O)(=O)C(F)F)c1ccc(F)cc1 [Compound 297, (S)-3-(4-((difluoromethyl)sulfonamido)-3-(1-(4-fluorophenyl)ethoxy)phenyl)-5-((5-(2-fluoropropan-2-yl)isoxazol-3-yl)amino)-1H-pyrazole-4-carboxamide]
< 10 | > 30 | > 30 | CCS(=O)(=O)Nc1ccc(-c2n[nH]c(Nc3cnn(C)c3)c2C(N)=O)cc1 [Compound 100, 3-(4-(ethylsulfonamido)phenyl)-5-((1-methyl-1H-pyrazol-4-yl)amino)-1H-pyrazole-4-carboxamide]
< 10 | > 30 | > 30 | CCS(=O)(=O)Nc1ccc(-c2n[nH]c(Nc3ccccc3)c2C(N)=O)cc1 [Compound 124, 3-(4-(ethylsulfonamido)phenyl)-5-(phenylamino)-1H-pyrazole-4-carboxamide]
< 10 | > 30 | > 30 | CCS(=O)(=O)Nc1ccc(-c2n[nH]c(Nc3cnccn3)c2C(N)=O)cc1OCc1ccccn1 [Compound 261, 3-{4-ethanesulfonamido-3-[(pyridin-2-yl)methoxy]phenyl}-5-[(pyrazin-2-yl)amino]-1H-pyrazole-4-carboxamide]
< 10 | > 30 | > 30 | C[C@H](Oc1cc(-c2n[nH]c(Nc3cc(C(C)(C)C)on3)c2C(N)=O)ccc1NS(=O)(=O)C(F)F)c1ccc(F)cc1 [Compound 282, (S)-5-((5-(tert-butyl)isoxazol-3-yl)amino)-3-(4-((difluoromethyl)sulfonamido)-3-(1-(4-fluorophenyl)ethoxy)phenyl)-1H-pyrazole-4-carboxamide]
< 10 | > 30 | > 30 | NC(=O)c1c(-c2ccc(NS(=O)(=O)CC(F)(F)F)c(Oc3ccc(Cl)cc3)c2)n[nH]c1Nc1cnccn1 [Compound 168, 3-(3-(4-chlorophenoxy)-4-((2,2,2-trifluoroethyl)sulfonamido)phenyl)-5-(pyrazin-2-ylamino)-1H-pyrazole-4-carboxamide]
< 10 | > 30 | > 30 | CCS(=O)(=O)Nc1ccc(-c2n[nH]c(Nc3cnccn3)c2C(N)=O)cc1OCc1ccc(F)cn1 [Compound 156, 3-(4-(ethylsulfonamido)-3-((5-fluoropyridin-2-yl)methoxy)phenyl)-5-(pyrazin-2-ylamino)-1H-pyrazole-4-carboxamide]
< 10 | > 30 | > 30 | CCS(=O)(=O)Nc1ccc(-c2n[nH]c(Nc3cnc(C4CC4)cn3)c2C(N)=O)cc1 [Compound 158, 5-((5-cyclopropylpyrazin-2-yl)amino)-3-(4-(ethylsulfonamido)phenyl)-1H-pyrazole-4-carboxamide]
< 10 | > 30 | > 30 | NC(=O)c1c(-c2ccc(NS(=O)(=O)C(F)F)c(OCc3ccc(F)cc3)c2)n[nH]c1Nc1cnccn1 [Compound 202, 3-(4-((difluoromethyl)sulfonamido)-3-((4-fluorobenzyl)oxy)phenyl)-5-(pyrazin-2-ylamino)-1H-pyrazole-4-carboxamide]
< 10 | > 30 | > 30 | CCC(Oc1cc(-c2n[nH]c(Nc3cnccn3)c2C(N)=O)ccc1NS(=O)(=O)C(F)F)c1ccc(F)cc1 (racemic) [Compound 233, 3-[4-(difluoromethanesulfonamido)-3-[1-(4-fluorophenyl)propoxy]phenyl]-5-[(pyrazin-2-yl)amino]-1H-pyrazole-4-carboxamide]
< 10 | > 30 | > 30 | CCS(=O)(=O)Nc1ccc(-c2n[nH]c(Nc3ccnc(C(F)(F)F)c3)c2C(N)=O)cc1 [Compound 104, 3-(4-(ethylsulfonamido)phenyl)-5-((2-(trifluoromethyl)pyridin-4-yl)amino)-1H-pyrazole-4-carboxamide]
< 10 | > 30 | > 30 | COc1cnc(Nc2[nH]nc(-c3ccc(NS(=O)(=O)C(F)F)c(OCc4ccc(F)cc4)c3)c2C(N)=O)cn1 [Compound 191, 3-(4-((difluoromethyl)sulfonamido)-3-((4-fluorobenzyl)oxy)phenyl)-5-((5-methoxypyrazin-2-yl)amino)-1H-pyrazole-4-carboxamide]
< 10 | > 30 | > 30 | CCS(=O)(=O)Nc1ccc(-c2n[nH]c(Nc3ccccn3)c2C(N)=O)cc1OCc1ccccc1 [Compound 20, 3-(3-(benzyloxy)-4-(ethylsulfon-amido)phenyl)-5-(pyridin-2-ylamino)-1H-pyrazole-4-carboxamide]
< 10 | > 30 | > 30 | CCS(=O)(=O)Nc1ccc(-c2n[nH]c(Nc3cccc(C(F)(F)F)n3)c2C(N)=O)cc1 [Compound 126, 3-(4-(ethylsulfonamido)phenyl)-5-((6-(trifluoromethyl)pyridin-2-yl)amino)-1H-pyrazole-4-carboxamide]
< 10 | > 30 | > 30 | CCS(=O)(=O)Nc1ccc(-c2n[nH]c(Nc3cnccn3)c2C(N)=O)cc1Oc1cccc(F)c1 [Compound 204, 3-(4-(ethylsulfonamido)-3-(3-fluorophenoxy)phenyl)-5-(pyrazin-2-ylamino)-1H-pyrazole-4-carboxamide]
< 10 | > 30 | > 30 | CCS(=O)(=O)Nc1ccc(-c2n[nH]c(Nc3cncc(C(F)(F)F)n3)c2C(N)=O)cc1OCc1ccc(F)cc1 [Compound 17, 3-(4-(ethylsulfonamido)-3-((4-fluorobenzyl)oxy)phenyl)5-((6-(trifluoromethyl)pyrazin-2-yl)amino)-1H-pyrazole-4-carboxamide]
< 10 | > 30 | > 30 | Cc1cc(Nc2c(C(N)=O)c(-c3ccc(NS(=O)(=O)C(F)F)c(O[C@@H](C)c4ccc(F)cc4)c3)nn2C)no1 [Compound 320, (S)-3-(4-((difluoromethyl)sulfonamido)-3-(1-(4-fluorophenyl)ethoxy)phenyl)-1-methyl-5-((5-methylisoxazol-3-yl)amino)-1H-pyrazole-4-carboxamide]
< 10 | > 30 | > 30 | CCS(=O)(=O)Nc1ccc(-c2n[nH]c(Nc3cnc(C)cn3)c2C(N)=O)cc1 [Compound 101, 3-(4-(ethylsulfonamido)phenyl)-5-((5-methylpyrazin-2-yl)amino)-1H-pyrazole-4-carboxamide]
< 10 | > 30 | > 30 | CCc1cc(Nc2[nH]nc(-c3ccc(NS(=O)(=O)C(F)F)c(O[C@@H](C)c4ccc(F)cc4)c3)c2C(N)=O)no1 [Compound 274, (S)-3-(4-((difluoromethyl)sulfonamido)-3-(1-(4-fluorophenyl)ethoxy)phenyl)-5-((5-ethylisoxazol-3-yl)amino)-1H-pyrazole-4-carboxamide]
< 10 | > 30 | > 30 | NC(=O)c1c(-c2ccc(NS(=O)(=O)C(F)F)c(OCc3nccs3)c2)n[nH]c1Nc1cnccn1 [Compound 275, 3-(4-((difluoro-methyl)sulfon-amido)-3-(thiazol-2-ylmethoxy)phenyl)-5-(pyrazin-2-ylamino)-1H-pyrazole-4-carboxamide]
< 10 | > 30 | > 30 | CCS(=O)(=O)Nc1ccc(-c2n[nH]c(Nc3cnccn3)c2C(N)=O)cc1OC(C)(C)c1ccc(F)cc1 [Compound 228, 3-(4-ethanesulfonamido-3-{[2-(4-fluorophenyl)propan-2-yl]oxy}phenyl)-5-[(pyrazin-2-yl)amino]-1H-pyrazole-4-carboxamide]
< 10 | > 30 | > 30 | CCS(=O)(=O)Nc1ccc(-c2n[nH]c(Nc3cc(C)nc(C)c3)c2C(N)=O)cc1 [Compound 112, 5-((2,6-dimethylpyridin-4-yl)amino)-3-(4-(ethylsulfonamido)phenyl)-1H-pyrazole-4-carboxamide]
< 10 | > 30 | > 30 | C[C@H](Oc1cc(-c2n[nH]c(Nc3cc(C4CCOCC4)ccn3)c2C(N)=O)ccc1NS(=O)(=O)C(F)F)c1ccc(F)cc1 [Compound 287, (S)-3-(4-((difluoromethyl)sulfonamido)-3-(1-(4-fluorophenyl)ethoxy)phenyl)-5-((4-(tetrahydro-2H-pyran-4-yl)pyridin-2-yl)amino)-1H-pyrazole-4-carboxamide]
